According to patent US8772250B2, “Compositions and methods for treating ischemia and ischemia-reperfusion injury” (Ischemix, LLC, priority 2010, dated 2014):
Marks after values point to notes of the source that are not given here.

Key:
myocardial I/R injury = test: Incidence of acute cardiac dysfunction and mortality in rat model of myocardial I/R injury; type: in vivo
Protocol: The incidence of acute cardiac dysfunction associated with arrhythmia and cardiac arrest requiring intervention and the incidence of mortality due to these co-morbidities was examined in the rat model of myocardial I/R injury described herein for different dosages and dosage regimens for administering RLip-EA-OH. In vivo experiments were performed as described in Example 8 using dosage intervals described in Example 10. Treatments (i.e., vehicle, RLip-EA-OH) were administered as a left intra-ventricular injection, IV bolus, IV infusion, or orally. Specifically, the incidence of non-self-resolving cardiac dysfunction (i.e., extended fibrillation arrhythmia, sudden cardiac arrest) during ischemia and requiring intervention (direct mechanical cardiac resuscitation), and mortality associated with cardiac dysfunction were observed.

[1] = tested on: myocardial ischemia-reperfusion injury; test: Rat model of myocardial I/R injury (MI/AR ratio); type: in vivo; conditions: for % Reduction in MI/AR Compared to Vehicle: rat IV
[2] = tested on: RIP-deficient Jurkat cells; test: Cell survival assay, TNFα-induced apoptosis; type: cell-based, human; conditions: for % Survival: 10 ng/mL TNFα, 24 h
Protocol: The ability of RLip-EA-OH to prevent apoptosis and promote cell survival was assessed using Jurkat cells deficient in Receptor-Interacting Protein (RIP), a cell death mediating protein. The Jurkat cell line is derived from human T-Lymphocytes. RIP-deficient Jurkat cells are susceptible to apoptosis when treated with tumor necrosis factor alpha (TNFα). These cells were treated with either vehicle or RLip-EA-OH and then apoptosis was triggered with TNFα. Cell survival was assessed to evaluate if RLip-EA-OH protected the cells against TNFα induced apoptosis.
RIP-deficient Jurkat cells were seeded into 96 well plates at 20,000 cells per well and treated for 2 hours with RLip-EA-OH (6 wells for each concentration) or DMSO. After pretreatment, 3 wells for each dose of drug were exposed to 10 ng/mL human recombinant TNFα (TNFα was not added to the other 3 wells). Twenty four hours after TNFα treatment, ATP cell viability was determined (CellTiter-Glo, Promega) and the values were used to calculate % survival of the cells.

Akt = test: Cytoblot assay for Akt activation in A549 cells; type: cell-based, human
Protocol: The ability of RLip-EA-OH to increase phosphorylated Akt was assayed using an in-cell western blot, or cytoblot. A549 cells (human non-small cell lung cancer cell line) were selected because these cells can be manipulated to increase or decrease the level of phosphoryated Akt. The cells were inoculated onto culture plates and allowed to adhere to the bottom, then treated, fixed, and permeabilized. Following permeabilization, the cells were treated with antibodies specific for either phospho-Akt or total Akt. The cells were then treated with fluorescent secondary antibodies to quantify the amount of bound primary antibody. Total Akt and phospho-Akt were simultaneously detected.
A549 cells were plated in 384 well black-wall, clear-bottom, cell culture-treated microtiter plates at 70% confluence. Cells were incubated overnight to allow cell attachment. The media was changed to low serum (0.1%, fetal bovine serum [FBS]) and the cells were incubated for another 24 hours. Cells were treated with test compounds, fixed and permeabilized for the Akt assay. The fixative was 3.7% formaldehyde in phosphate buffered saline. The permeabilization buffer was 0.5% Triton X-100 in phosphate buffered saline. After permeabilization of cells, the amounts of total Akt and phosphorylated Akt at either of the two phosphorylation sites (threonine-308 and serine-473) were determined at 7 test concentrations, each performed in quadruplicate. The phospho-Akt data were normalized to total Akt and background subtracted for analysis.
Following overnight serum starvation to reduce basal Akt phosphorylation, cells were stimulated with vehicle, RLip-EA-OH, or RLip-OH. Cells were treated for 45 minutes or 3 hours and studied for phosphorylation at serine-473 or threonine 308, respectively.

Compound: C[C@H](NC(=O)[C@H](CCC(=O)O)NC(=O)CCCC[C@@H]1CCSS1)C(=O)O [RLip-EA-OH, N-(R)-lipoyl-L-glutamyl-L- alanine]
- Intervention due to Arrhythmia/Arrest (%) (myocardial I/R injury; Multi-dose (2x)): 3\19 (16) %
- Mortality (%) (myocardial I/R injury; Multi-dose (2x)): 1\19 (5) %
- Intervention due to Arrhythmia/Arrest (%) (myocardial I/R injury; Multi-dose (3x)): 4\18 (22) %
- Mortality (%) (myocardial I/R injury; Multi-dose (3x)): 1\18 (5) %
- Intervention due to Arrhythmia/Arrest (%) (myocardial I/R injury; Single dose): 6\17 (35) %
- Mortality (%) (myocardial I/R injury; Single dose): 2\17 (12) %
- efficacy in a rat model of I/R injury ([1]; intravenously (bolus IV and infusion), orally and intra-cardiac): efficacious
- % Reduction in MI/AR Compared to Vehicle ([1]; Entry 1: 1 mg/kg at −0.25 h): 3%
- % Reduction in MI/AR Compared to Vehicle ([1]; Entry 2a: 3 mg/kg (bolus) at −0.25 h): 6%
- % Reduction in MI/AR Compared to Vehicle ([1]; Entry 3a: 5 mg/kg (bolus) at −0.25 h): 27* %
- % Reduction in MI/AR Compared to Vehicle ([1]; Entry 3b: 5 mg/kg (1 h infusion) at −1 h): 27* %
- % Reduction in MI/AR Compared to Vehicle ([1]; Entry 4a: 10 mg/kg (bolus) at −0.25 h): 33* %
- % Reduction in MI/AR Compared to Vehicle ([1]; Entry 4b: 10 mg/kg (1 h infusion)): 33* %
- % Reduction in MI/AR Compared to Vehicle ([1]; Entry 6: 20 mg/kg at −0.25 h): 9%
- % Reduction in MI/AR Compared to Vehicle ([1]; Entry 8: 10 mg/kg at −6 h): 24* %
- % Reduction in MI/AR Compared to Vehicle ([1]; Entry 9: 10 mg/kg at −24 h): 24* %
- % Reduction in MI/AR Compared to Vehicle ([1]; Entry 10: 20 mg/kg at −3 h): 26* %
- % Reduction in MI/AR Compared to Vehicle ([1]; Entry 11: 40 mg/kg at −3 h): 17%
- % Reduction in MI/AR Compared to Vehicle ([1]; Entry 14: 10 and 10 mg/kg at −24 and −3 h): 32* %
- % Reduction in MI/AR Compared to Vehicle ([1]; Entry 15: 10 and 10 and 10 mg/kg at −24 and −3 and −0.25 h): 42* %
- % Reduction in MI/AR Compared to Vehicle ([1]; Entry 17: 10 and 10 mg/kg at −3 h and at reperfusion): 34* %
- reduction of myocardial tissue death vs saline vehicle ([1]; rat, 1 mg/kg IC, 15 minutes pre-occlusion): 38%
- Reduction of MI:AR Ratio Relative to Vehicle (%) ([1]; rat, 1 mg/kg IC, Table 7 meta analysis): 31 ± 3 %
- Reduction of MI:AR Ratio Relative to Vehicle (%) ([1]; rat, 1 mg/kg IC, Table 8): 31 ± 3 %
- reduction of myocardial tissue death vs saline vehicle ([1]; rat, 1 mg/kg IC, at reperfusion (within 1 minute after reperfusion)): 32%
- reduction of myocardial tissue death vs saline vehicle ([1]; rat, 1 mg/kg IC, during occlusion (15 minutes after occluding)): 24%
- MI:AR ratio ([1]; rat, 1 mg/kg IC, meta analysis n=64): 0.250
- reduction of MI/AR vs saline vehicle ([1]; rat, 1 mg/kg IC, meta analysis n=64 vs n=54, p<0.001): 33%
- MI/AR ([1]; rat, 1 mg/kg single bolus IC 15 minutes prior to ischemia): 0.337
- MI/AR ([1]; rat, 2 mg/kg single bolus IC 15 minutes prior to ischemia): 0.290
- MI/AR (meta-analysis) ([1]; rat, B—Single (10_0)): 0.261
- MI/AR (meta-analysis) ([1]; rat, C—Multiple (10_10)): 0.207
- effect of different doses on myocardial tissue death (MI/AR) ([1]; rat, IV or IC, 15 minutes pre-occlusion): significantly (p<0.05) reduced myocardial tissue death and was dose dependent
- % Reduction in MI/AR compared to vehicle controls ([1]; rat, Table 11: 10 mg/kg at −0.25 h): 28%
- % Reduction in MI/AR compared to vehicle controls ([1]; rat, Table 11: 10 and 10 mg/kg at −3 and −0.25 h): 43* %
- reduction in MI damage ([1]; rat, single 10 mg/kg IV bolus 15 min before ischemia or at 3 h before ischemia): ~33%
- reduction of MI (meta-analysis) ([1]; rat, single bolus dose 10 mg/kg at −3 h): 29%
- % Survival ([2]; 0.006 μM): 84%
- % Survival ([2]; 0.012 μM): 95%
- % Survival ([2]; 0.05 μM): 96%
- % Survival ([2]; 0.1 μM): 98%
- % Survival ([2]; 0.2 μM): 101%
- % Survival ([2]; 1.5 μM): 106%
- effect on TNFα induced cell death ([2]; RIP-deficient Jurkat cells): prevented TNFα induced cell death in a dose dependent manner
- increase in phosphorylated Akt at serine 473 (Akt; 45 minutes of treatment): 3 fold
- Akt phosphorylation at threonine-308 (Akt; 3 hours of treatment, compound alone): Increased Akt phosphorylation
- amount of phosphorylated Akt relative to total Akt (Akt; variant concentrations): increased the amount of phosphorylated Akt relative to total Akt in a dose dependent manner
